Data reported in publication PMC4422947 (Acta Pharmacologica Sinica, 2015).
pIC50: −log10 of the molar value.

Legend:
[1] = assay type: in vivo, rat; conditions: after iv or po administration of tanshinol; data not shown
CYP2A6 = target: T1, CYP2A6 (Homo sapiens, UniProt P11509); test: Inhibition of cDNA-expressed human CYP2A6; assay type: in vitro ADME; conditions: CYP2A6, coumarin 7-hydroxylation
T1 sequence (P11509 1-494): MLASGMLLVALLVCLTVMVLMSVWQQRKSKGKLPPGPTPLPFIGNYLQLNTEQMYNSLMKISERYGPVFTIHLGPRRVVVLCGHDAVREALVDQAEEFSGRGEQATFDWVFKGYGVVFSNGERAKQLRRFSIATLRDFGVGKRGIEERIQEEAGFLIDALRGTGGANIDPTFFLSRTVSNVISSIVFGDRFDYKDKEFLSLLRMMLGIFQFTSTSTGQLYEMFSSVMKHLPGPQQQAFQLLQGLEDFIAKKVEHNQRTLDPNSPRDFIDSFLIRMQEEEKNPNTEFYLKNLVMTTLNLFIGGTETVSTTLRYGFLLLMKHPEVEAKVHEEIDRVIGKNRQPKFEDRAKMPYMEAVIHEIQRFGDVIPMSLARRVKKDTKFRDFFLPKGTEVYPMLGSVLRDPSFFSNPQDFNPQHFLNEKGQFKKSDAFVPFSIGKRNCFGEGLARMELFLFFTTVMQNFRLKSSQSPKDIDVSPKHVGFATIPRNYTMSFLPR

CYP2B6 = target: T2, CYP2B6 (Homo sapiens, UniProt P20813); test: Inhibition of cDNA-expressed human CYP2B6; assay type: in vitro ADME; conditions: CYP2B6, 7-ethoxy-4-trifluoromethylcoumarin O-deethylation
T2 sequence (P20813 1-491): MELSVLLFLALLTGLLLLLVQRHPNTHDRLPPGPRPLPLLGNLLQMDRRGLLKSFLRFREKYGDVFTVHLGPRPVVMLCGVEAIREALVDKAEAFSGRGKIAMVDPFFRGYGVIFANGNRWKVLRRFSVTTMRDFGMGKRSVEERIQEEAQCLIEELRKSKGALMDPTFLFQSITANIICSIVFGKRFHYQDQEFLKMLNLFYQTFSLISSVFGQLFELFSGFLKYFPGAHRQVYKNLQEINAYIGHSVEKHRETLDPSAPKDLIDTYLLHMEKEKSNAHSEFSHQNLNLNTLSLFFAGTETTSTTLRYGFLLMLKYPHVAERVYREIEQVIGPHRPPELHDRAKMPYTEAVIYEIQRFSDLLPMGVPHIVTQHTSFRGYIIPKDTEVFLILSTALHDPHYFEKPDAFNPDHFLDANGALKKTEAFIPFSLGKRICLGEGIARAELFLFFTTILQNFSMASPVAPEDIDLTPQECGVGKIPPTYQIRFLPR

Molecule: 8-O-methyltanshinol
- Detection in rat samples [1]: not detected

Molecule: N[C@@H]1C[C@H]1c1ccccc1 (racemic) [tranylcypromine]
- pIC50 (CYP2A6): 7.15
- pIC50 (CYP2B6): 5.23

Molecule: COC(=O)C(O)Cc1ccc(O)c(O)c1 (stereo not shown) [tanshinol methyl ester]
- Detection in rat samples [1]: not detected
